Laboratory results taken from patent US8895585B2, “Nicotinamide derivative or salt thereof” (FUJIFILM Corporation, priority 2010, dated 2014).

Key:
[1] = system: THP-1 cells; test: TNFα generation assay; format: cell-based, human; settings: Homo sapiens, THP-1, THP-1 cells; Table 22; read-out: IC50 in TNFα generation assay
How it was run: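 Secreted TNFα in supernatant quantified by ELISA or AlphaLISA after 7 h culture on human IgG-coated wells (10 μg/ml coating). Cells were IFN-γ-differentiated THP-1 (10 ng/ml, 2 days), exposed to compound for 30 min at room temperature before plating.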

[2] = target: T1, glutathione S-transferase (GST)-fused full-length human Syk protein (Homo sapiens, UniProt P43405); test: Syk enzyme assay; format: biochemical; settings: Syk enzyme assay, Test Example 1; read-out: IC50 of Syk-inhibitory activity
T1 construct: (GST)-fused full-length human Syk protein; GST (glutathione S-transferase); purchased Carna Biosciences
How it was run: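 Baculovirus-expressed enzyme (1.2 ng) was preincubated with compound in HEPES pH 7.0/MgCl2/DTT buffer, 2 min shaking then 13 min at room temperature. Biotin-EDPDYEWPSA-NH2 (0.4 μM final) and ATP (27 μM final) were added for 40 min at room temperature. EDTA stop, streptavidin-XL/PT66-K TR-FRET at 615/665 nm gave IC50.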

| SMILES | IC50 [1] [nM] | IC50 [2] [nM] |
| --- | --- | --- |
| CCOCCOCCOc1ccc2cc(Nc3nc(NC4CCCCC4N)c(F)cc3C(N)=O)ccc2n1 (centres unmarked) [Example 002-100] | 130 to 200 | < 10 |
| Cn1c(=O)ccc2cc(Nc3nc(NC4CCCCC4N)c(F)cc3C(N)=O)cnc21 (centres unmarked) [Example 002-115] | 130 to 200 | 10 to 50 |
| Cc1nc2ccc(Nc3nc(NC4CCCCC4N)c(F)cc3C(N)=O)cc2nc1C (centres unmarked) [Example 002-123] | 130 to 200 | < 10 |
| CCCn1ncc2cc(Nc3nc(NC4CCCCC4N)c(F)cc3C(N)=O)ccc21 (centres unmarked) [Example 002-126] | 65 to 130 | < 10 |
| NC(=O)c1cc(F)c(NC2CCCCC2N)nc1Nc1ccnc(-c2ccccc2F)c1 (centres unmarked) [Example 002-131] | 65 to 130 | < 10 |
| COc1ccc(-c2cc(Nc3nc(NC4CCCCC4N)c(F)cc3C(N)=O)ccn2)c(F)c1 (centres unmarked) [Example 002-140] | 130 to 200 | < 10 |
| NC(=O)c1cc(F)c(NC2CCCCC2N)nc1Nc1ccc(C2CC2)nc1 (centres unmarked) [Example 002-142] | 130 to 200 | < 10 |
| NC(=O)c1cc(F)c(NC2CCCCC2N)nc1Nc1ccc(-n2cccn2)nc1 (centres unmarked) [Example 002-160] | 130 to 200 | 10 to 50 |
| NC(=O)c1cc(F)c(NC2CCCCC2N)nc1Nc1ccnc(N2CCOCC2)c1F (centres unmarked) [Example 002-165] | 65 to 130 | 10 to 50 |
| NC(=O)c1cc(F)c(NC2CCCCC2N)nc1Nc1cnnc(-c2ccccc2)c1 (centres unmarked) [Example 002-169] | 130 to 200 | 10 to 50 |
| COc1ccc(-c2cncc(Nc3nc(NC4CCCCC4N)c(F)cc3C(N)=O)c2)cc1OC (centres unmarked) [Example 002-170] | 65 to 130 | 10 to 50 |
| NC(=O)c1cc(F)c(NC2CCCCC2N)nc1Nc1cncc(-c2ccc([N+](=O)[O-])cc2)c1 (centres unmarked) [Example 002-172] | 130 to 200 | 10 to 50 |
| N#Cc1ccc(-c2cncc(Nc3nc(NC4CCCCC4N)c(F)cc3C(N)=O)c2)cc1 (centres unmarked) [Example 002-173] | 130 to 200 | 10 to 50 |
| CCn1ncc2c(Nc3nc(NC4CCCCC4N)c(F)cc3C(N)=O)cccc21 (centres unmarked) [Example 002-186] | 65 to 130 | < 10 |
| NC(=O)c1cc(F)c(NC2CCCCC2N)nc1Nc1ccc2c(cnn2CC(F)F)c1 (centres unmarked) [Example 002-187] | < 65 | < 10 |
| NC(=O)c1cc(F)c(NC2CCCCC2N)nc1Nc1ccc2cnn(CC(F)F)c2c1 (centres unmarked) [Example 002-188] | 65 to 130 | < 10 |
| NC(=O)c1cc(F)c(NC2CCCCC2N)nc1Nc1cncc(-c2ccc3cccnc3c2)c1 (centres unmarked) [Example 002-189] | 65 to 130 | < 10 |
| NC(=O)c1cc(F)c(NC2CCCCC2N)nc1Nc1cncc(-c2ccc3cnccc3c2)c1 (centres unmarked) [Example 002-190] | 130 to 200 | < 10 |
| NC(=O)c1cc(F)c(NC2CCCCC2N)nc1Nc1cncc(-c2ccc3ccncc3c2)c1 (centres unmarked) [Example 002-191] | 65 to 130 | < 10 |
| NC(=O)c1cc(F)c(NC2CCCCC2N)nc1Nc1ccnc(-c2ccc3cnccc3c2)c1 (centres unmarked) [Example 002-193] | 130 to 200 | < 10 |
| Cn1nc(F)c2cc(Nc3nc(NC4CCCCC4N)c(F)cc3C(N)=O)ccc21 (centres unmarked) [Example 002-196] | 65 to 130 | < 10 |

| SMILES | IC50 [1] [nM] | IC50 [2] [nM] |
| --- | --- | --- |
| CCn1nc(F)c2cc(Nc3nc(NC4CCCCC4N)c(F)cc3C(N)=O)ccc21 (centres unmarked) [Example 002-197] | 130 to 200 | < 10 |
| CCn1nc(F)c2ccc(Nc3nc(NC4CCCCC4N)c(F)cc3C(N)=O)cc21 (centres unmarked) [Example 002-199] | 130 to 200 | < 10 |
| NC(=O)c1cc(F)c(NC2CCCCC2N)nc1Nc1ccc2c(cnn2CCF)c1 (centres unmarked) [Example 002-200] | < 65 | < 10 |
| NC(=O)c1cc(F)c(NC2CCCCC2N)nc1Nc1ccc2cnn(CCF)c2c1 (centres unmarked) [Example 002-201] | 65 to 130 | < 10 |
| NC(=O)c1cc(F)c(NC2CCCCC2N)nc1Nc1ccc2c(c1)c(F)nn2CCF (centres unmarked) [Example 002-204] | 65 to 130 | < 10 |
| Cc1nn(C)c2ccc(Nc3nc(NC4CCCCC4N)c(F)cc3C(N)=O)cc12 (centres unmarked) [Example 002-206] | < 65 | < 10 |
| CCn1nc(C)c2cc(Nc3nc(NC4CCCCC4N)c(F)cc3C(N)=O)ccc21 (centres unmarked) [Example 002-207] | 65 to 130 | < 10 |
| Cc1nn(CCF)c2ccc(Nc3nc(NC4CCCCC4N)c(F)cc3C(N)=O)cc12 (centres unmarked) [Example 002-209] | 65 to 130 | < 10 |
| Cc1nn(CC(F)F)c2ccc(Nc3nc(NC4CCCCC4N)c(F)cc3C(N)=O)cc12 (centres unmarked) [Example 002-210] | 65 to 130 | < 10 |
| NC(=O)c1cc(F)c(N[C@@H]2CCCC[C@@H]2N)nc1Nc1cnc2cccnc2c1 [Example 004-002] | < 65 | 10 to 50 |
| NC(=O)c1cc(F)c(N[C@@H]2CCCC[C@@H]2N)nc1Nc1cnc2ccncc2c1 [Example 004-003] | < 65 | 10 to 50 |
| NC(=O)c1cc(F)c(N[C@@H]2CCCC[C@@H]2N)nc1Nc1cncc2cccnc12 [Example 004-004] | 65 to 130 | 10 to 50 |
| Cn1ccc2c(Nc3nc(N[C@@H]4CCCC[C@@H]4N)c(F)cc3C(N)=O)cncc21 [Example 004-006] | 65 to 130 | < 10 |
| NC(=O)c1cc(F)c(N[C@@H]2CCCC[C@@H]2N)nc1Nc1cncc2c1ccn2CCN1CCCC1 [Example 004-007] | 65 to 130 | < 10 |
| NC(=O)c1cc(F)c(N[C@@H]2CCCC[C@@H]2N)nc1Nc1cncc(C(=O)Nc2ccccc2)c1 [Example 004-011] | 130 to 200 | 10 to 50 |
| NC(=O)c1cc(F)c(N[C@@H]2CCCC[C@@H]2N)nc1Nc1ccc2nc(-c3ccccc3)cn2c1 [Example 004-014] | 130 to 200 | < 10 |
| Cc1cc(Nc2nc(N[C@@H]3CCCC[C@@H]3N)c(F)cc2C(N)=O)ccn1 [Example 004-018] | 65 to 130 | 10 to 50 |
| Cc1ccncc1Nc1nc(N[C@@H]2CCCC[C@@H]2N)c(F)cc1C(N)=O [Example 004-019] | 130 to 200 | 10 to 50 |
| NC(=O)c1cc(F)c(N[C@@H]2CCCC[C@@H]2N)nc1Nc1cncc2c1cnn2-c1ccccc1 [Example 004-020] | 130 to 200 | < 10 |
| NC(=O)c1cc(F)c(N[C@@H]2CCCC[C@@H]2N)nc1Nc1cnc2c(ccn2CCN2CCCC2)c1 [Example 004-022] | 65 to 130 | 10 to 50 |

Further lines, results first:

| IC50 [1] [nM] | IC50 [2] [nM] | SMILES |
| --- | --- | --- |
| 130 to 200 | < 10 | COCCOCCOc1ccc2cc(Nc3nc(NC4CCCCC4N)c(F)cc3C(N)=O)ccc2n1 (centres unmarked) [Example 002-110] |
| 130 to 200 | < 10 | NC(=O)c1cc(F)c(NC2CCCCC2N)nc1Nc1ccc2nc(OCCN3CCCC3=O)ccc2c1 (centres unmarked) [Example 002-113] |
| < 65 | < 10 | NC(=O)c1cc(F)c(NC2CCCCC2N)nc1Nc1ccnc(-n2cncn2)c1 (centres unmarked) [Example 002-114] |
| 65 to 130 | < 10 | Cc1ncc(Nc2nc(NC3CCCCC3N)c(F)cc2C(N)=O)cc1-c1ccoc1 (centres unmarked) [Example 002-117] |
| 130 to 200 | 10 to 50 | Cc1ncc(Nc2nc(NC3CCCCC3N)c(F)cc2C(N)=O)cc1C1CC1 (centres unmarked) [Example 002-118] |
| 65 to 130 | < 10 | CCn1ncc2cc(Nc3nc(NC4CCCCC4N)c(F)cc3C(N)=O)ccc21 (centres unmarked) [Example 002-125] |
| 130 to 200 | < 10 | NC(=O)c1cc(F)c(NC2CCCCC2N)nc1Nc1cncc(-n2cncn2)c1 (centres unmarked) [Example 002-137] |
| 65 to 130 | < 10 | COc1cccc(-c2cc(Nc3nc(NC4CCCCC4N)c(F)cc3C(N)=O)ccn2)c1F (centres unmarked) [Example 002-139] |
| 65 to 130 | < 10 | COc1ccc(F)c(-c2cc(Nc3nc(NC4CCCCC4N)c(F)cc3C(N)=O)ccn2)c1 (centres unmarked) [Example 002-141] |
| 130 to 200 | < 10 | NC(=O)c1cc(F)c(NC2CCCCC2N)nc1Nc1ccnc(-c2cccc(F)c2F)c1 (centres unmarked) [Example 002-144] |
| 65 to 130 | 10 to 50 | COc1ncc(Nc2nc(NC3CCCCC3N)c(F)cc2C(N)=O)cc1-n1nccn1 (centres unmarked) [Example 002-155] |
| 130 to 200 | 10 to 50 | Cc1nccc(Nc2nc(NC3CCCCC3N)c(F)cc2C(N)=O)c1F (centres unmarked) [Example 002-163] |
| < 65 | < 10 | NC(=O)c1cc(F)c(NC2CCCCC2N)nc1Nc1cncc(-c2ccc3c(c2)OCO3)c1 (centres unmarked) [Example 002-175] |
| < 65 | < 10 | CCn1ncc2ccc(Nc3nc(NC4CCCCC4N)c(F)cc3C(N)=O)cc21 (centres unmarked) [Example 002-185] |
| 65 to 130 | < 10 | Cn1nc(F)c2ccc(Nc3nc(NC4CCCCC4N)c(F)cc3C(N)=O)cc21 (centres unmarked) [Example 002-198] |
| 65 to 130 | < 10 | NC(=O)c1cc(F)c(NC2CCCCC2N)nc1Nc1ccc2c(F)nn(CCF)c2c1 (centres unmarked) [Example 002-205] |
| 65 to 130 | < 10 | COCCn1nc(C)c2cc(Nc3nc(NC4CCCCC4N)c(F)cc3C(N)=O)ccc21 (centres unmarked) [Example 002-208] |
| 65 to 130 | < 10 | NC(=O)c1cc(F)c(N[C@@H]2CCCC[C@@H]2N)nc1Nc1cnc2c([N+](=O)[O-])cccc2c1 [Example 004-005] |
| < 65 | < 10 | Cn1ccc2cc(Nc3nc(N[C@@H]4CCCC[C@@H]4N)c(F)cc3C(N)=O)cnc21 [Example 004-012] |
| 65 to 130 | < 10 | COC(=O)c1cncc(Nc2nc(N[C@@H]3CCCC[C@@H]3N)c(F)cc2C(N)=O)c1 [Example 004-016] |
